Tests used:
[1] = tested on: H460; assay: Cellular H460 viability assay (CellTiter-Glo, 72 hours); format: cell-based; conditions: Homo sapiens, NCI-H460
How it was run: (§1)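 72 h treatment, 37 °C, 5% CO2; DMSO ctrl, final <0.1%; CellTiter-Glo luminescence; n=2.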

[2] = tested on: MM.1S; assay: Cellular MM.1S viability assay (CellTiter-Glo, 72 hours); format: cell-based; conditions: Homo sapiens, MM1.S
Text: Human T-cell acute lymphoblastic leukemia cell line, MOLT-4 (ATCC, Cat #CRL-1582), Human multiple myeloma cell line, RPMI-8226 (Invitrogen, Cat #22400-089) and MM.1S (ATCC, Cat #CRL-2974), NSCLC (Non-small cell lung cancer) cell line H460 (ATCC, Cat #HTB-177), Human colon colorectal carcinoma cell line HCT116 (ATCC, Cat #CCL-247), Human acute monocytic leukemia cell line MV4-11 (ATCC, Cat #CRL-9591), OVCAR-3 (ATCC, Cat #HTB-161) and A2780 (ECACC, Cat #93112519) were obtained from ATCC. Cells were grown in RPMI-1640 media (Invitrogen, Cat #22400-089) supplemented with 10% FBS (Invitrogen, Cat #10099141) and 1% penicillin/streptomycin (Invitrogen, Cat #15070063) and cultured at 37° C., 5% CO2 in a humidified chamber. All cell lines were routinely tested for mycoplasma.
The effect of the CDK7 inhibitor to inhibit the growth of target cancer cells was evaluated through the 72 hours time period of viability assay. Briefly, the candidate cell line ware plated in 96 well plate at the following density of cells respectively. 1×10^4 cells/well for MOLT-4, RPMI-8226, MV4-11 and MM.1S, 5×10^3 for H460, HCT116 and OVCAR-3 and IX 10^3 for A2780. After 24 hours, the cells were treated with various concentrations of the compound (ranging from 0.0015 uM to 10 uM). DMSO solvent without compound served as a control and final DMSO concentration less than 0.1%. After 72 hours of incubation at 37° C., 5% CO2 incubator, cells were analyzed for the viability using the CellTiter-Glo Luminescent Cell Viability Assay (Promega, Cat #G7570). All viability assays were performed in duplicate and Luminescence was read using an Envision (Perkin Elmer, USA). Data was analyzed using XLfit software.

[3] = molecular target: T1, CDK2/Cyclin A (Homo sapiens, UniProt P24941); assay: Enzymatic assay for CDK2 (FRET based LANCE Ultra kinase assay); format: biochemical; conditions: read-out: CDK2 enzymatic activity (IC50 range)
T1 construct: purchased Invitrogen PV6290
How it was run: (§2)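 TR-FRET (LANCE Ultra) kinase assay at ATP Km, ULight-MBP peptide substrate (68 nM), 8-dose 4-fold compound series in DMSO. Enzymes: […]; 60 min at 23° C., stopped with EDTA plus Eu-anti-phospho-MBP antibody, read 665/615 nm after 60 min.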

[4] = tested on: MOLT-4; assay: Cellular MOLT-4 viability assay (CellTiter-Glo, 72 hours); format: cell-based; conditions: Homo sapiens, MOLT4 viability assay
How it was run: as §1

[5] = molecular target: T2, CDK7/Cyclin H/MNAT1 (Homo sapiens, UniProt P50613); assay: Enzymatic assay for CDK7 (FRET based LANCE Ultra kinase assay); format: biochemical; conditions: for IC50: read-out: CDK7 enzymatic activity (IC50 range)
T2 construct: purchased Invitrogen PR6749B
How it was run: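 LANCE Ultra TR-FRET kinase assay using a ULight-labeled peptide substrate and a Eu-labeled anti-phospho antibody, with ATP at its Km. Purified CDK/cyclin complex was added to compound after brief centrifugation.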

[6] = tested on: RPMI-8226; assay: Cellular RPMI-8226 viability assay (CellTiter-Glo, 72 hours); format: cell-based; conditions: Homo sapiens
How it was run: as §1

[7] = molecular target: T3, CDK5/p25 (Homo sapiens, UniProt Q00535); assay: Enzymatic assay for CDK5 (FRET based LANCE Ultra kinase assay); format: biochemical; conditions: read-out: CDK5 enzymatic activity (IC50 range)
T3 construct: purchased Invitrogen PR8543B
How it was run: as §2

[8] = molecular target: T4, CDK1/Cyclin B (Homo sapiens, UniProt P06493); assay: Enzymatic assay for CDK1 (FRET based LANCE Ultra kinase assay); format: biochemical; conditions: read-out: CDK1 enzymatic activity (IC50 range)
T4 construct: purchased Invitrogen PR4768C
How it was run: as §2

[9] = tested on: HCT116; assay: Cellular HCT116 viability assay (CellTiter-Glo, 72 hours); format: cell-based; conditions: Homo sapiens, HCT-116
How it was run: as §1

[10] = tested on: MV4-11; assay: Cellular MV4-11 viability assay (CellTiter-Glo, 72 hours); format: cell-based; conditions: Homo sapiens
How it was run: as §1

T3 sequence (Q00535 whole entry): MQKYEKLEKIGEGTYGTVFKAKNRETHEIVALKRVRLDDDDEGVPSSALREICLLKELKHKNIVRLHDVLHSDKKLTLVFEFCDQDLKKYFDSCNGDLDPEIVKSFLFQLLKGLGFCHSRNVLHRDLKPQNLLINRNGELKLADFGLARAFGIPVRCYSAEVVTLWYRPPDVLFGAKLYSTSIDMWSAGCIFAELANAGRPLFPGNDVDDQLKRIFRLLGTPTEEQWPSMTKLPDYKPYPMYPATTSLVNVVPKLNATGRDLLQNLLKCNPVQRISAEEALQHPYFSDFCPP
T3 sequence (Q15078 99-307 partner limits assumed): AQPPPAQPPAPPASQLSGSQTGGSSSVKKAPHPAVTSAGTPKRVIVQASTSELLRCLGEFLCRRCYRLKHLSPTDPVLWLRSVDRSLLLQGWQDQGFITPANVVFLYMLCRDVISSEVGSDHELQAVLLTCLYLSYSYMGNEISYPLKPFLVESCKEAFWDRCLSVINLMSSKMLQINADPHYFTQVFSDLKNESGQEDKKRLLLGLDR
T2 sequence (P50613 whole entry): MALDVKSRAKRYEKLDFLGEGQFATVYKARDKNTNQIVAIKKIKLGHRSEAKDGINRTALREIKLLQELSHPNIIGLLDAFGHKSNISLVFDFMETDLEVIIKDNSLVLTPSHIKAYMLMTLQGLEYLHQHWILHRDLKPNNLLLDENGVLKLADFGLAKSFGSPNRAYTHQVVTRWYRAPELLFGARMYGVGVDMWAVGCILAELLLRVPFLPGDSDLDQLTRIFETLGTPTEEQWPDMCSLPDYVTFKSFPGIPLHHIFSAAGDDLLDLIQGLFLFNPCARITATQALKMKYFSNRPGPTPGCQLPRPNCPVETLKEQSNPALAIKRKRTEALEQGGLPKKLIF
T2 sequence (P51946 whole entry partner): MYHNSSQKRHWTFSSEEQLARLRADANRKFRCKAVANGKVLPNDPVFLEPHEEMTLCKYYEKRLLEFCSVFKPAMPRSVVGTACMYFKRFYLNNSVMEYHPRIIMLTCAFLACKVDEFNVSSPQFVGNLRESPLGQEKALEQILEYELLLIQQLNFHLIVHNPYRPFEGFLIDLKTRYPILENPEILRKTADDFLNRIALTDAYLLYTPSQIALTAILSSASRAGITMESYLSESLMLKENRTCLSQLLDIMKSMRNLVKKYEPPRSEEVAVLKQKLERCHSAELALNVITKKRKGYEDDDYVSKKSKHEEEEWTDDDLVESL
T2 sequence (P51948 whole entry partner): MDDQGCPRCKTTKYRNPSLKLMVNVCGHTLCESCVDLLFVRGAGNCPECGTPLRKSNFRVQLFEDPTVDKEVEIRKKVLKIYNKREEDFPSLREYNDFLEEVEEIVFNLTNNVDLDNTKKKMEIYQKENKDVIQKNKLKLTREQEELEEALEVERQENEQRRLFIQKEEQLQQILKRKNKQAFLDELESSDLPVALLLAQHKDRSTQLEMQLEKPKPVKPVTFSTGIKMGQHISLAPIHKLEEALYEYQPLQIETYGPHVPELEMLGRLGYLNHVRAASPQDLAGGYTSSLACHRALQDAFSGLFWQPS
T4 sequence (P06493 whole entry): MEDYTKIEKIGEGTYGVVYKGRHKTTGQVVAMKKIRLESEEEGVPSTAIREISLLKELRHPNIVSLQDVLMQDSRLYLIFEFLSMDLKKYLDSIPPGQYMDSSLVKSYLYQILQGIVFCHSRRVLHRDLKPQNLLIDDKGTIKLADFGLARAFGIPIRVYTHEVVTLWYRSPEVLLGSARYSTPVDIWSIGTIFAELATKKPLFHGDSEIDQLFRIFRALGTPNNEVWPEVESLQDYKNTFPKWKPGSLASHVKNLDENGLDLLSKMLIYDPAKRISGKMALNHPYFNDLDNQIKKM
T4 sequence (P14635 whole entry partner): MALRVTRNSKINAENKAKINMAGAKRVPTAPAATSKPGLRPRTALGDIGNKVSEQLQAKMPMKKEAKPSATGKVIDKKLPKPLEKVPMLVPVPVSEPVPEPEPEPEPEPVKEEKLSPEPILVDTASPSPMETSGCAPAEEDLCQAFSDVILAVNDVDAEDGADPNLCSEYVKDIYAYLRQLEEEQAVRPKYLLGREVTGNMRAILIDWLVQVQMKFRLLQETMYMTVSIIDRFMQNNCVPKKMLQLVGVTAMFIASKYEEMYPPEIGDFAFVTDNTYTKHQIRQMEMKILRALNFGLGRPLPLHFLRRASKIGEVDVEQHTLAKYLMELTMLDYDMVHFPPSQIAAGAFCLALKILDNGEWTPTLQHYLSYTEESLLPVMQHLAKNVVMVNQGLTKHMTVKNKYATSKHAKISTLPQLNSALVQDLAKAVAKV

Compound	IC50 [1] [nM]	IC50 [2] [nM]	IC50 [3] [nM]	IC50 [4] [nM]	CDK1/CDK7: Selectivity of CDK7 inhibition over CDK1 inhibition [5]	CDK2/CDK7: Selectivity of CDK7 inhibition over CDK2 inhibition [5]	CDK5/CDK7: Selectivity of CDK7 inhibition over CDK5 inhibition [5]	IC50 [5] [nM]	IC50 [6] [nM]	IC50 [7] [nM]	IC50 [8] [nM]	IC50 [9] [nM]	IC50 [10] [nM]
CC(C)c1cnn2c(NCc3ccccc3-n3cc4ccc(C(F)(F)F)cc4n3)nc(N3CCC(N)CC3)nc12 [Compound 104]	< 1000	≤ 1000	> 1000	1000 to 10000	A (A=greater than 200 fold)	A (A=greater than 200 fold)	B (B=less than 200 fold, but greater than 20 fold)	< 100	< 1000	100 to 1000	> 1000	< 1000	< 1000
CC(C)c1cnn2c(NCc3c(Cl)cccc3-n3cccn3)nc(N3CCC(N)CC3)nc12 [Compound 38]	< 1000	≤ 1000	> 1000	1000 to 10000	A (A=greater than 200 fold)	A (A=greater than 200 fold)	B (B=less than 200 fold, but greater than 20 fold)	< 100	< 1000	100 to 1000	> 1000		< 1000
CC(C)c1cnn2c(NCc3ccccc3-n3cccn3)nc(-c3cccc(C(=O)N4CCC(N)CC4)c3)nc12 [Compound 171]	< 1000	≤ 1000	> 1000	1000 to 10000	A (A=greater than 200 fold)	A (A=greater than 200 fold)	A (A=greater than 200 fold)	< 100	1000 to 10000	> 1000	> 1000	< 1000	< 1000
CC(C)c1cnn2c(NCc3c(F)cccc3-n3cccn3)nc(N3CCC(N)CC3)nc12 [Compound 42]	< 1000	≤ 1000	100 to 1000	1000 to 10000	A (A=greater than 200 fold)	A (A=greater than 200 fold)	B (B=less than 200 fold, but greater than 20 fold)	< 100	< 1000	100 to 1000	> 1000		< 1000
CC(C)c1cnn2c(NCc3ccccc3-c3ccc4ccccc4n3)cc(N3CCC(N)CC3)nc12 [Compound 73]	< 1000	≤ 1000	> 1000	1000 to 10000	A (A=greater than 200 fold)	A (A=greater than 200 fold)	B (B=less than 200 fold, but greater than 20 fold)	< 100	1000 to 10000	100 to 1000	> 1000	< 1000	< 1000
COc1cccc(-n2cccn2)c1CNc1nc(N2CCC(N)CC2)nc2c(C(C)C)cnn12 [Compound 39]	1000 to 10000	1000 to 10000	> 1000	> 10000	A (A=greater than 200 fold)	A (A=greater than 200 fold)	A (A=greater than 200 fold)	< 100	1000 to 10000	> 1000	> 1000		1000 to 10000
CC(C)c1cnn2c(NCc3ccccc3OC3CCN(C)CC3)nc(N3CCC(N)CC3)nc12 [Compound 66]	< 1000	≤ 1000	> 1000	1000 to 10000	A (A=greater than 200 fold)	A (A=greater than 200 fold)	A (A=greater than 200 fold)	< 100	1000 to 10000	100 to 1000	> 1000	< 1000	< 1000
CC(C)c1cnn2c(N[C@@H](C)c3ccccc3-n3cccn3)nc(N3CCC(N)CC3)nc12 [Compound 21]	< 1000	≤ 1000	> 1000		A (A=greater than 200 fold)	A (A=greater than 200 fold)	A (A=greater than 200 fold)	< 100	1000 to 10000	> 1000	> 1000	< 1000	< 1000
CNC(=O)c1ccc2nn(-c3ccccc3CNc3nc(N4CCC(N)CC4)nc4c(C(C)C)cnn34)cc2c1 [Compound 14]	< 1000	≤ 1000	100 to 1000		A (A=greater than 200 fold)	B (B=less than 200 fold, but greater than 20 fold)	B (B=less than 200 fold, but greater than 20 fold)	< 100	< 1000	100 to 1000	100 to 1000	< 1000	< 1000
CC(C)c1cnn2c(NCc3ccccc3-c3nccc4ccccc34)nc(N3CCC(N)CC3)nc12 [Compound 79]	1000 to 10000	1000 to 10000	> 1000	> 10000	A (A=greater than 200 fold)	A (A=greater than 200 fold)	A (A=greater than 200 fold)	< 100	1000 to 10000	> 1000	> 1000		1000 to 10000
CC(C)c1cnn2c(NCc3ccccc3-c3nccc4c(NC(=O)CCCN(C)C)cccc34)nc(N3CCC(N)CC3)nc12 [Compound 90]	1000 to 10000	> 10000	> 1000	> 10000	A (A=greater than 200 fold)	A (A=greater than 200 fold)	A (A=greater than 200 fold)	< 100	1000 to 10000	> 1000	> 1000	1000 to 10000	< 1000
CC(C)c1cnn2c(NCc3c(-n4cccn4)cccc3C(F)(F)F)nc(N3CCC(N)CC3)nc12 [Compound 46]	1000 to 10000	1000 to 10000	> 1000	1000 to 10000	A (A=greater than 200 fold)	A (A=greater than 200 fold)	A (A=greater than 200 fold)	< 100	1000 to 10000	> 1000	> 1000		1000 to 10000
CC(C)c1cnn2c(NCc3ccccc3-n3cc4cc(Oc5ccccc5)ccc4n3)nc(N3CCC(N)CC3)nc12 [Compound 105]	1000 to 10000	≤ 1000	> 1000	1000 to 10000	A (A=greater than 200 fold)	B (B=less than 200 fold, but greater than 20 fold)	B (B=less than 200 fold, but greater than 20 fold)	< 100	1000 to 10000	> 1000	> 1000		

From US11945822B2, “Pyrazolo-triazine and/or pyrazolo-pxrimidine derivatives as selective inhibitor of cyclin dependent kinase” (QURIENT CO., LTD., priority 2018, dated 2024)
